In US8685933B2, “Casein-derived peptides having anxiolytic activity” (Universite de Lorraine, priority 2006, dated 2014):
Where no end group is shown, it is not given here.

Legend:
Assay type in all cases: in vivo, rat
Wistar rats [1] = assay: elevated plus maze test; conditions: for number of entries in the open arms, carrier compared with treated animals / percentage of entries into the open arms, carrier compared with treated animals / time spent in the open arms, carrier compared with treated animals: p<0.05
Excerpt: The elevated plus maze test allows the measurement of the density of exploratory behaviour in a new aversive situation [PELLOW et al., 1985 (17)]. The experiment exploits the conflict in rodents, between the fear of open spaces and the desire of exploring a new environment. The rat, placed at the centre of the device is forced to explore its environment. The open arms form an anxiogenic environment, whereas this is not the case of the closed arms. The number of entries in the whole of the arms, that relating to the open arms, the closed arms, the time spent in the open arms, the entry latency in the first open arm, form parameters which reflect the degree of anxiety of the animal.
The elevated plus maze built in wood consists of four branches at 90° from each other. The two open branches (45×10 cm) and the two closed branches (45×10 cm; surrounded with wooden plates over a height of 40 cm) are positioned facing each other. The central square measures 10×10 cm. The open branches are illuminated by white light with an intensity of 500 lux. The elevated plus maze is located at 50 cm from the ground.
The observations take place between 9.0 am and 11.0 am in order to minimize the influence of the circadian rhythm. […] each passage in the elevated plus maze, the animal is placed for 10 min in an open field in order to stimulate its exploratory behavior. It is then placed in the central square of the elevated plus maze and observed for 5 min. The plus maze is washed with 95% (v/v) ethanol between two passages in order to eliminate the odors.
The animals receive their respective treatment via an intra-peritoneal route, half an hour before passing into the open field.

Wistar rats [2] = assay: light/dark box test; conditions: for time spent in the aversive non-familiar compartment, carrier compared with treated animals: 10 min observation, p<0.05
Excerpt: The light/dark tests are based on the innate aversion of rodents for intensively illuminated environments and on their spontaneous exploratory behavior in response to slight stress factors such as a new environment and light. The device of the light/dark box allows the study of the exploratory behavior of the rodent towards a non-familiar aversive compartment (intensively illuminated with white light) after habituation in a non-aversive compartment (dark) which then becomes familiar [BOURIN and HASCOËT, 2008 (18)]. Conventional anxiolytics may be detected by using this device.
The light/dark box measures 65×49×35 cm (h×w×l) and is separated into two identical compartments by a plate perforated with three doors of 8×8 cm. The floor is covered with sawdust. Each rat is placed for 24 h in the rear compartment of the box, the doors for communicating with the front compartment being inaccessible. The rear compartment thus becomes the familiar compartment. The animal is fed and hydrated ad libitum. On the day of the test, the rat after treatment is replaced in the familiar compartment and the doors communicating with the front compartment (non-familiar) are made accessible so that the animal may freely explore the environment. The non-familiar compartment is made aversive by white light illumination with an intensity of 1,500 lux. The animals are observed for 10 min and the time spent in each of the compartments is measured.
The animals receive their respective treatment via an intra-peritoneal route, half an hour before opening the communication between the familiar compartment and the non-familiar compartment.

Wistar rats [3] = assay: conditioned defensive burial test
Excerpt: The conditioned defensive burial test was used for measuring the anxiety level in rats. Developed by PINEL and TREIT (16), this test is based on the innate tendency of rodents, placed in a familiar environment of burying any object perceived as being dangerous by projecting on the latter the litter present at ground level. The expression of the burial behavior by the animal is representative of its anxiety level: more it is anxious, more it buries.
The test takes place in a Plexiglas box (44×28×18 cm), one of the walls of which has an orifice through which an electrode (7×2×0.5 cm) may be inserted. The bottom of the box is covered with a thick layer of sawdust (5 cm). The electrode is connected to a generator delivering a 1 mA intensity current when it is actuated by the experimenter. The whole of the experimentation is carried out in low intensity light.
The experiment consists of habituation phase of 2 days followed by a test phase. During the habituation phase, the rats are placed 20 min daily in the test box, without the electrode, in order to accustom them to the experimental device. During the test phase, each rat is individually placed in the box which contains the electrode. When the animal touches the electrode in the first time, it receives a single shock. From this instant, its behavior is filmed for 5 min and behavioral variables are quantified.
The total burial time and the occurrence latency of the burial behavior after the shock are the most significant variables. A certain number of behaviors oriented towards the electrode and correlated with the anxiety level of the rat (approaches, escapes, contacts) are also counted. Finally, indicators of the activity level of the rat such as the number of upright standing postures are reported.
The animals receive their respective treatments, via an intra-peritoneal route, half an hour before passing into the conditioned defensive burial test.

[4] = diazepam 1 mg/kg intra-peritoneal
[5] = fragment 0.7 mg/kg vs diazepam 1 mg/kg intra-peritoneal
[6] = fragment 91-97 0.7 mg/kg intra-peritoneal

Compound	number of entries in the open arms, carrier compared with treated animals (Wistar rats [1]; [4])	percentage of entries into the open arms, carrier compared with treated animals (Wistar rats [1]; [4])	time spent in the open arms, carrier compared with treated animals (Wistar rats [1]; [4])	time spent in the aversive non-familiar compartment, carrier compared with treated animals (Wistar rats [2]; [4])	anxiolytic action in conditioned defensive burial (Wistar rats [3]; 0.5 mg/kg intra-peritoneal)	burial duration of an aversive probe after a single 1 mA shock, NaCl 0.9% control compared with treated animals (Wistar rats [3]; 0.5 mg/kg intra-peritoneal, half an hour before test, Mann-Whitney: diazepam p<0.02, fragment 91-97 p<0.04, 5 min observation)	burial duration, fragment 91-97 compared with diazepam (Wistar rats [3]; both 0.5 mg/kg intra-peritoneal)	elevated plus maze open-arm parameters, fragment 91-97 compared with diazepam (Wistar rats [1]; [5])	number of entries in the open arms, carrier compared with treated animals (Wistar rats [1]; [6])	percentage of entries into the open arms, carrier compared with treated animals (Wistar rats [1]; [6])	time spent in the open arms, carrier compared with treated animals (Wistar rats [1]; [6])	time spent in the non-familiar compartment, fragment 91-97 compared with diazepam (Wistar rats [2]; [5])	time spent in the aversive non-familiar compartment, carrier compared with treated animals (Wistar rats [2]; [6])
CN1C(=O)CN=C(c2ccccc2)c2cc(Cl)ccc21 [diazepam, reference compound]	significantly less	significantly less	significantly less	significantly less									
YLGYLEQ [fragment 91-97 of αs1 casein, Heptapeptide corresponding to the positions 91-97 of αs1 casein]					has an anxiolytic action in Wistar rats which acts in the same direction as that of diazepam	significantly larger	No significant difference	No significant difference	significantly less	significantly less	significantly less	No significant difference	significantly less
